Read-outs that look alike come from different tables or passages of the source.
What was measured:
[1] = reported value, cited from earlier work
[2] = tested on: adenosine deaminase (ADA); test: ADA-mediated deamination monitored by absorption and emission; format: biochemical
[3] = Abs: monitored by absorption, first order fit
[4] = Em: monitored by emission, first order fit

Nc1ncnc2c1ncn2[C@@H]1O[C@H](CO)[C@@H](O)[C@H]1O [A, adenosine]
pKa ([1]; first pKa): 3.6–4.2 | kapp [2, 3]: 120 ± 10 × 10^−4 s^−1 | t1/2 [2, 3]: 0.57 ± 0.01 × 10^2 s | half-life ([2]; adenosine deaminase (ADA) enzyme reaction): 57 s

O=c1ccn([C@@H]2O[C@H](CO)[C@@H](O)[C@H]2O)c(=O)[nH]1 [uridine]
pKa ([1]; first pKa): 9.20–9.25

Nc1nc2c(ncn2[C@@H]2O[C@H](CO)[C@@H](O)[C@H]2O)c(=O)[nH]1 [G, guanosine]
pKa ([1]; first pKa): 3.2–3.3 | pKa ([1]; second pKa): 9.2–9.6

Nc1ncnc2c([C@@H]3O[C@H](CO)[C@@H](O)[C@H]3O)snc12 [^tzA]
kapp [2, 3]: 220 ± 10 × 10^−4 s^−1 | t1/2 [2, 3]: 0.32 ± 0.02 × 10^2 s | kapp [2, 4]: 220 ± 10 × 10^−4 s^−1 | t1/2 [2, 4]: 0.31 ± 0.02 × 10^2 s | t1/2 ([2]; calculated from absorption spectroscopy data): 32 ± 2 s | t1/2 ([2]; calculated from changes in emission spectra): 31 ± 2 s

Reference: paper PMC8891053 (Chemistry (Weinheim an der Bergstrasse, Germany), 2022)
